Data from patent publication US8952024B2, “Herbicidal pyrimidone derivatives” (E I du Pont de Nemours and Company, priority 2009, dated 2015).

How the values were obtained:
Test in all cases: Test B pre-/postemergence plant response
Assay type in all cases: in vivo
[1] = system: Surinam grass (Brachiaria decumbens); conditions: for Surinam Grass plant response rating (0 to 100 scale): 62 g ai/ha, postemergence, 0 is no effect, 100 is complete control; for Plant response rating, Surinam Grass: Postemergence
Summary of the method: (§1)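 Visually scored on a 0 to 100 scale after 13 to 15 days in greenhouse versus controls. Treatments were preemergence on seeded loam/sand soil and postemergence on 1- to 4-leaf plants.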

[2] = system: blackgrass (Alopecurus myosuroides); conditions: for Blackgrass plant response rating (0 to 100 scale): 62 g ai/ha, postemergence, 0 is no effect, 100 is complete control; for Plant response rating, Blackgrass: Postemergence
Summary of the method: as §1

[3] = system: cocklebur (Xanthium strumarium); conditions: for Cocklebur plant response rating (0 to 100 scale): 62 g ai/ha, postemergence, 0 is no effect, 100 is complete control; for Plant response rating, Cocklebur: Postemergence
Summary of the method: as §1

corn (Zea mays) = conditions: for Corn plant response rating (0 to 100 scale): 62 g ai/ha, postemergence, 0 is no effect, 100 is complete control; for Plant response rating, Corn: Postemergence
Summary of the method: as §1

[4] = system: downy bromegrass (Bromus tectorum); conditions: for Bromegrass, Downy plant response rating (0 to 100 scale): 62 g ai/ha, postemergence, 0 is no effect, 100 is complete control; for Plant response rating, Bromegrass, Downy: Postemergence
Summary of the method: as §1

[5] = system: giant foxtail (Setaria faberii); conditions: for Foxtail, Giant plant response rating (0 to 100 scale): 62 g ai/ha, postemergence, 0 is no effect, 100 is complete control; for Plant response rating, Foxtail, Giant: Postemergence
Summary of the method: as §1

[6] = system: goosegrass (Eleusine indica); conditions: for Goosegrass plant response rating (0 to 100 scale): 62 g ai/ha, postemergence, 0 is no effect, 100 is complete control; for Plant response rating, Goosegrass: Postemergence
Summary of the method: as §1

[7] = system: green foxtail (Setaria viridis); conditions: for Foxtail, Green plant response rating (0 to 100 scale): 62 g ai/ha, postemergence, 0 is no effect, 100 is complete control; for Plant response rating, Foxtail, Green: Postemergence
Summary of the method: as §1

[8] = system: johnsongrass (Sorghum halepense); conditions: for Johnsongrass plant response rating (0 to 100 scale): 62 g ai/ha, postemergence, 0 is no effect, 100 is complete control; for Plant response rating, Johnsongrass: Postemergence
Summary of the method: as §1

kochia (Kochia scoparia) = conditions: for Kochia plant response rating (0 to 100 scale): 62 g ai/ha, postemergence, 0 is no effect, 100 is complete control; for Plant response rating, Kochia: Postemergence
Summary of the method: as §1

[9] = system: large crabgrass (Digitaria sanguinalis); conditions: for Crabgrass, Large plant response rating (0 to 100 scale): 62 g ai/ha, postemergence, 0 is no effect, 100 is complete control; for Plant response rating, Crabgrass, Large: Postemergence
Summary of the method: as §1

[10] = system: morningglory (Ipomoea coccinea); conditions: for Morningglory plant response rating (0 to 100 scale): 62 g ai/ha, postemergence, 0 is no effect, 100 is complete control; for Plant response rating, Morningglory: Postemergence
Summary of the method: as §1

soybean (Glycine max) = conditions: for Soybean plant response rating (0 to 100 scale): 62 g ai/ha, postemergence, 0 is no effect, 100 is complete control; for Plant response rating, Soybean: Postemergence
Summary of the method: as §1

[11] = system: velvetleaf (Abutilon theophrasti); conditions: for Velvetleaf plant response rating (0 to 100 scale): 62 g ai/ha, postemergence, 0 is no effect, 100 is complete control; for Plant response rating, Velvetleaf: Postemergence
Summary of the method: as §1

wild oat (Avena fatua) = conditions: for Oat, Wild plant response rating (0 to 100 scale): 62 g ai/ha, postemergence, 0 is no effect, 100 is complete control; for Plant response rating, Oat, Wild: Postemergence
Summary of the method: as §1

[12] = system: woolly cupgrass (Eriochloa villosa); conditions: for Cupgrass, Woolly plant response rating (0 to 100 scale): 62 g ai/ha, postemergence, 0 is no effect, 100 is complete control; for Plant response rating, Cupgrass, Woolly: Postemergence
Summary of the method: as §1

[13] = system: yellow nutsedge (Cyperus esculentus); conditions: for Nutsedge, Yellow plant response rating (0 to 100 scale): 62 g ai/ha, postemergence, 0 is no effect, 100 is complete control; for Plant response rating, Nutsedge, Yellow: Postemergence
Summary of the method: as §1

[14] = 31 g ai/ha, 0 to 100 scale (0 no effect, 100 complete control)
[15] = 125 g ai/ha, scale 0 to 100 (0 no effect, 100 complete control)
[16] = 250 g ai/ha, scale 0 to 100 (0 no effect, 100 complete control), 13 to 15 days

## O=C1CCCC(O)=C1C(=O)c1cnc(-c2ccccc2)n(C2CCOCC2)c1=O [Compound 129]
[1]; 13 to 15 days
  Surinam Grass plant response rating (0 to 100 scale): 85
[1]; [14]
  Plant response rating, Surinam Grass: 80
[1]; [15]
  Plant response rating, Surinam Grass: 85
[1]; [16]
  Plant response rating, Surinam Grass: 85
[2]; 13 to 15 days
  Blackgrass plant response rating (0 to 100 scale): 5
[2]; [14]
  Plant response rating, Blackgrass: 0
[2]; [15]
  Plant response rating, Blackgrass: 5
[2]; [16]
  Plant response rating, Blackgrass: 5
[3]; 13 to 15 days
  Cocklebur plant response rating (0 to 100 scale): 98
[3]; [14]
  Plant response rating, Cocklebur: 95
[3]; [15]
  Plant response rating, Cocklebur: 98
[3]; [16]
  Plant response rating, Cocklebur: 100
Corn (Zea mays); 13 to 15 days
  Corn plant response rating (0 to 100 scale): 35
Corn (Zea mays); [14]
  Plant response rating, Corn: 20
Corn (Zea mays); [15]
  Plant response rating, Corn: 60
Corn (Zea mays); [16]
  Plant response rating, Corn: 60
[4]; 13 to 15 days
  Bromegrass, Downy plant response rating (0 to 100 scale): 10
[4]; [14]
  Plant response rating, Bromegrass, Downy: 5
[4]; [15]
  Plant response rating, Bromegrass, Downy: 15
[4]; [16]
  Plant response rating, Bromegrass, Downy: 35
[5]; 13 to 15 days
  Foxtail, Giant plant response rating (0 to 100 scale): 85
[5]; [14]
  Plant response rating, Foxtail, Giant: 70
[5]; [15]
  Plant response rating, Foxtail, Giant: 90
[5]; [16]
  Plant response rating, Foxtail, Giant: 98
[6]; 13 to 15 days
  Goosegrass plant response rating (0 to 100 scale): 85
[6]; [14]
  Plant response rating, Goosegrass: 85
[6]; [15]
  Plant response rating, Goosegrass: 90
[6]; [16]
  Plant response rating, Goosegrass: 95
[7]; 13 to 15 days
  Foxtail, Green plant response rating (0 to 100 scale): 90
[7]; [14]
  Plant response rating, Foxtail, Green: 80
[7]; [15]
  Plant response rating, Foxtail, Green: 90
[7]; [16]
  Plant response rating, Foxtail, Green: 95
[8]; 13 to 15 days
  Johnsongrass plant response rating (0 to 100 scale): 45
[8]; [14]
  Plant response rating, Johnsongrass: 40
[8]; [15]
  Plant response rating, Johnsongrass: 70
[8]; [16]
  Plant response rating, Johnsongrass: 85
Kochia (Kochia scoparia); 13 to 15 days
  Kochia plant response rating (0 to 100 scale): 95
Kochia (Kochia scoparia); [14]
  Plant response rating, Kochia: 80
Kochia (Kochia scoparia); [15]
  Plant response rating, Kochia: 95
Kochia (Kochia scoparia); [16]
  Plant response rating, Kochia: 98
[9]; 13 to 15 days
  Crabgrass, Large plant response rating (0 to 100 scale): 80
[9]; [14]
  Plant response rating, Crabgrass, Large: 80
[9]; [15]
  Plant response rating, Crabgrass, Large: 85
[9]; [16]
  Plant response rating, Crabgrass, Large: 85
[10]; 13 to 15 days
  Morningglory plant response rating (0 to 100 scale): 90
[10]; [14]
  Plant response rating, Morningglory: 90
[10]; [15]
  Plant response rating, Morningglory: 90
[10]; [16]
  Plant response rating, Morningglory: 90
Soybean (Glycine max); 13 to 15 days
  Soybean plant response rating (0 to 100 scale): 98
Soybean (Glycine max); [14]
  Plant response rating, Soybean: 95
Soybean (Glycine max); [15]
  Plant response rating, Soybean: 98
Soybean (Glycine max); [16]
  Plant response rating, Soybean: 98
[11]; 13 to 15 days
  Velvetleaf plant response rating (0 to 100 scale): 95
[11]; [14]
  Plant response rating, Velvetleaf: 95
[11]; [15]
  Plant response rating, Velvetleaf: 95
[11]; [16]
  Plant response rating, Velvetleaf: 100
Wild oat (Avena fatua); 13 to 15 days
  Oat, Wild plant response rating (0 to 100 scale): 5
Wild oat (Avena fatua); [14]
  Plant response rating, Oat, Wild: 0
Wild oat (Avena fatua); [15]
  Plant response rating, Oat, Wild: 20
Wild oat (Avena fatua); [16]
  Plant response rating, Oat, Wild: 30
[12]; 13 to 15 days
  Cupgrass, Woolly plant response rating (0 to 100 scale): 85
[12]; [14]
  Plant response rating, Cupgrass, Woolly: 80
[12]; [15]
  Plant response rating, Cupgrass, Woolly: 85
[12]; [16]
  Plant response rating, Cupgrass, Woolly: 85
[13]; 13 to 15 days
  Nutsedge, Yellow plant response rating (0 to 100 scale): 35
[13]; [14]
  Plant response rating, Nutsedge, Yellow: 35
[13]; [15]
  Plant response rating, Nutsedge, Yellow: 60
[13]; [16]
  Plant response rating, Nutsedge, Yellow: 85

## O=C1CCCC(O)=C1C(=O)c1cnc(-c2ccccc2)n(C2CCCCCC2)c1=O [Compound 130]
[1]; 13 to 15 days
  Surinam Grass plant response rating (0 to 100 scale): 80
[1]; [14]
  Plant response rating, Surinam Grass: 80
[1]; [15]
  Plant response rating, Surinam Grass: 80
[1]; [16]
  Plant response rating, Surinam Grass: 90
[2]; 13 to 15 days
  Blackgrass plant response rating (0 to 100 scale): 5
[2]; [14]
  Plant response rating, Blackgrass: 0
[2]; [15]
  Plant response rating, Blackgrass: 5
[2]; [16]
  Plant response rating, Blackgrass: 5
[3]; 13 to 15 days
  Cocklebur plant response rating (0 to 100 scale): 95
[3]; [14]
  Plant response rating, Cocklebur: 85
[3]; [15]
  Plant response rating, Cocklebur: 95
[3]; [16]
  Plant response rating, Cocklebur: 100
Corn (Zea mays); 13 to 15 days
  Corn plant response rating (0 to 100 scale): 60
Corn (Zea mays); [14]
  Plant response rating, Corn: 55
Corn (Zea mays); [15]
  Plant response rating, Corn: 80
Corn (Zea mays); [16]
  Plant response rating, Corn: 80
[4]; 13 to 15 days
  Bromegrass, Downy plant response rating (0 to 100 scale): 15
[4]; [14]
  Plant response rating, Bromegrass, Downy: 10
[4]; [15]
  Plant response rating, Bromegrass, Downy: 35
[4]; [16]
  Plant response rating, Bromegrass, Downy: 40
[5]; 13 to 15 days
  Foxtail, Giant plant response rating (0 to 100 scale): 90
[5]; [14]
  Plant response rating, Foxtail, Giant: 90
[5]; [15]
  Plant response rating, Foxtail, Giant: 98
[5]; [16]
  Plant response rating, Foxtail, Giant: 98
[6]; 13 to 15 days
  Goosegrass plant response rating (0 to 100 scale): 85
[6]; [14]
  Plant response rating, Goosegrass: 85
[6]; [15]
  Plant response rating, Goosegrass: 95
[6]; [16]
  Plant response rating, Goosegrass: 95
[7]; 13 to 15 days
  Foxtail, Green plant response rating (0 to 100 scale): 90
[7]; [14]
  Plant response rating, Foxtail, Green: 90
[7]; [15]
  Plant response rating, Foxtail, Green: 95
[7]; [16]
  Plant response rating, Foxtail, Green: 98
[8]; 13 to 15 days
  Johnsongrass plant response rating (0 to 100 scale): 60
[8]; [14]
  Plant response rating, Johnsongrass: 60
[8]; [15]
  Plant response rating, Johnsongrass: 80
[8]; [16]
  Plant response rating, Johnsongrass: 80
Kochia (Kochia scoparia); 13 to 15 days
  Kochia plant response rating (0 to 100 scale): 85
Kochia (Kochia scoparia); [14]
  Plant response rating, Kochia: 85
Kochia (Kochia scoparia); [15]
  Plant response rating, Kochia: 100
Kochia (Kochia scoparia); [16]
  Plant response rating, Kochia: 100
[9]; 13 to 15 days
  Crabgrass, Large plant response rating (0 to 100 scale): 85
[9]; [14]
  Plant response rating, Crabgrass, Large: 85
[9]; [15]
  Plant response rating, Crabgrass, Large: 95
[9]; [16]
  Plant response rating, Crabgrass, Large: 100
[10]; 13 to 15 days
  Morningglory plant response rating (0 to 100 scale): 95
[10]; [14]
  Plant response rating, Morningglory: 95
[10]; [15]
  Plant response rating, Morningglory: 100
[10]; [16]
  Plant response rating, Morningglory: 100
Soybean (Glycine max); 13 to 15 days
  Soybean plant response rating (0 to 100 scale): 98
Soybean (Glycine max); [14]
  Plant response rating, Soybean: 98
Soybean (Glycine max); [15]
  Plant response rating, Soybean: 98
Soybean (Glycine max); [16]
  Plant response rating, Soybean: 100
[11]; 13 to 15 days
  Velvetleaf plant response rating (0 to 100 scale): 95
[11]; [14]
  Plant response rating, Velvetleaf: 95
[11]; [15]
  Plant response rating, Velvetleaf: 98
[11]; [16]
  Plant response rating, Velvetleaf: 100
Wild oat (Avena fatua); 13 to 15 days
  Oat, Wild plant response rating (0 to 100 scale): 30
Wild oat (Avena fatua); [14]
  Plant response rating, Oat, Wild: 20
Wild oat (Avena fatua); [15]
  Plant response rating, Oat, Wild: 40
Wild oat (Avena fatua); [16]
  Plant response rating, Oat, Wild: 60
[12]; 13 to 15 days
  Cupgrass, Woolly plant response rating (0 to 100 scale): 85
[12]; [14]
  Plant response rating, Cupgrass, Woolly: 80
[12]; [15]
  Plant response rating, Cupgrass, Woolly: 85
[12]; [16]
  Plant response rating, Cupgrass, Woolly: 90
[13]; 13 to 15 days
  Nutsedge, Yellow plant response rating (0 to 100 scale): 20
[13]; [14]
  Plant response rating, Nutsedge, Yellow: 10
[13]; [15]
  Plant response rating, Nutsedge, Yellow: 35
[13]; [16]
  Plant response rating, Nutsedge, Yellow: 40
